target: T1, human GPR120 (Homo sapiens, UniProt Q5NUL3); assay: Intracellular Ca2+ assay in human GPR120 stable cell line (HEK293 co-expressing Gqi5), Flexstation; assay type: cell-based; settings: % activity at 5 μM compared to the maximal activity of GW9508 at 6.7 μM (=100%); human GPR120 cells, Ca2+ fluorescence
T1 construct: host or cells: HEK293 cells co-expressing Gqi5
T1 sequence (Q5NUL3 1-361): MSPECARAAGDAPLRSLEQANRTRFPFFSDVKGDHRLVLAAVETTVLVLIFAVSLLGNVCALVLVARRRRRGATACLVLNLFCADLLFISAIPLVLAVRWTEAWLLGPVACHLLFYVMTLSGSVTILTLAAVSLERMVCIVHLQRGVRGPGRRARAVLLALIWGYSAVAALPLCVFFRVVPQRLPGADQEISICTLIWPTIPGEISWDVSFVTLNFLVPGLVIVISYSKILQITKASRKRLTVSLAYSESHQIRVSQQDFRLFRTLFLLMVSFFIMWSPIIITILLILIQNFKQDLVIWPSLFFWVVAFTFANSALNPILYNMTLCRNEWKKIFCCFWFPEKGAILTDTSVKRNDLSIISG
Experimental: Human GPR120 stable cell line was purchased from Multispan Inc (26219 Eden Landing Road, Hayward, Calif. 94545). This GPR120 cell line was generated in HEK293 cells co-expressing Gqi5. In this cell line, the Flag epitope tag (DYKDDDDK) was fused to the amino terminus of human GPR120 protein.
The concentration of intracellular Ca^2+ was measured as described below. Human GPR120 cells were plated in 96 well plates (Poly-D-Lysine coated black/clear Plate, Greiner Bio-One) at 70,000 cells per well and cultured overnight in conditions of 37° C. and 5% CO2. A Ca^2+assay dye stock solution was prepared by adding 10 mL of assay buffer (HBSS/20 mM HEPES, pH 7.4) to FLIPR Calcium 4 Assay Bulk Kit (Molecular Devices). The 10 mL of Ca^2+ assay dye solution was prepared by further diluting 0.5 mL of Ca^2+ assay dye stock solution with 10 mL of assay buffer. The medium of the cells was removed and immediately 100 μL of the Ca^2+ assay dye solution was dispensed into each well followed by incubation at 37° C. and 5% CO2 for 50 minutes to incorporate the Ca^2+ dye into the cells. The cell plate was then placed in the Flexstation (Molecular Devices) for 20 minutes at 37° C. Compounds were dissolved in 100% DMSO and diluted to desired concentrations with assay buffer and placed in the Flexstation simultaneously with the cell plate for 20 minute incubation at 37° C. prior to reading. Fluorescence intensity was measured immediately following compound addition (25 μL/well) on the Flexstation at an excitation wavelength of 485 nm and an emission wavelength of 525 with 515 nm auto cutoff. The resulting increase in fluorescence intensities corresponds to increases in intracellular Ca^2+ levels.
Compounds were dissolved in 100% DMSO to a concentration of 20 mM to provide stock solutions. To determine activity against human GPR120, compounds were added with human GPR120 stably expressing cells (described above), at eight desired concentrations ranging from 0.00001 to 20 μM, in 96 well plates and fluorescence intensities were measured for 90 seconds with 2-second intervals. An EC50 value (concentration of the GPR120 agonist where 50% of the agonist's maximal activity is observed) was calculated using the changes (Max−Min) of fluorescence intensity.
To determine percent activity for a tested compound, the fluorescence intensity value obtained at a particular concentration were compared to the maximal fluorescence intensity value obtained for reference compound GW9508 (4-[[(3-phenoxyphenyl)methyl]amino]benzene propanoic acid; British Journal of Pharmacology 2006 148, 619-628) or the compound of Example 25. When GW9508 was used as the reference compound, the maximal activity of GW9508 at 6.7 μM was designated as 100% activity. When the compound of Example 25 was used as the reference compound, the maximal activity of the compound of Example 25 at 2.5 μM was designated as 100% activity. Typically, the GW9508 activity reached a maximum at a concentration of approximately 6.7 μM and typically the compound of Example 25 reached a maximum activity at approximately 2.5 μM.

% Activity (GW9508 Reference Compound) [%]	Molecule
60.11	CC1(C)Cc2cc(Cl)cc(COc3c(F)cc(C4CC4C(=O)O)cc3F)c2O1 (racemic) [Example 35, 2-(4-((5-chloro-2,2-dimethyl-2,3-dihydrobenzofuran-7-yl)methoxy)-3,5-difluorophenyl)cyclopropanecarboxylic acid]
97.04	CC1(C)Cc2cc(F)cc(COc3c(F)cc(CC4CC4C(=O)O)cc3F)c2O1 (racemic) [Example 184, 2-(3,5-difluoro-4-((5-fluoro-2,2-dimethyl-2,3-dihydrobenzofuran-7-yl)methoxy)benzyl)cyclopropanecarboxylic acid]
103.75	CC1(C)Cc2cc(F)cc(COc3ccc(C4CC4C(=O)O)cc3)c2O1 (single isomer, unassigned) [Example 131A, 2-(4-((5-fluoro-2,2-dimethyl-2,3-dihydrobenzofuran-7-yl)methoxy)phenyl)cyclopropanecarboxylic acid]
105.8	CC1(C)Cc2cc(F)cc(COc3ccc(C4CC4C(=O)O)cc3)c2O1 (single isomer, unassigned) [Example 131B, 2-(4-((5-fluoro-2,2-dimethyl-2,3-dihydrobenzofuran-7-yl)methoxy)phenyl)cyclopropanecarboxylic acid]
95.58	CC1(C)Cc2cc(F)cc(COc3c(F)cc(CC4CC4C(=O)O)cc3F)c2O1 (single isomer, unassigned) [Example 184A, 2-(3,5-difluoro-4-((5-fluoro-2,2-dimethyl-2,3-dihydrobenzofuran-7-yl)methoxy)benzyl)cyclopropanecarboxylic acid]
130.66	CC1(C)Cc2cc(F)cc(COc3c(F)cc(CC4CC4C(=O)O)cc3F)c2O1 (single isomer, unassigned) [Example 184B, 2-(3,5-difluoro-4-((5-fluoro-2,2-dimethyl-2,3-dihydrobenzofuran-7-yl)methoxy)benzyl)cyclopropanecarboxylic acid]
134.6745	CC(Cc1cc(F)c(OCc2cccc3c2OC(C)(C)CC3)c(F)c1)C(=O)O (stereo not shown) [Example 2, 3-(4-((2,2-dimethylchroman-8-yl)methoxy)-3,5-difluorophenyl)-2-methylpropanoic acid]
123.7995	CC(Cc1cc(F)c(OCc2cccc3c2OCC3)c(F)c1)C(=O)O (stereo not shown) [Example 3, 3-(4-((2,3-dihydrobenzofuran-7-yl)methoxy)-3,5-difluorophenyl)-2-methylpropanoic acid]
110.8	Cc1cc(COc2ccc(CC(C)C(=O)O)cc2)c2c(c1)CC(C)(C)O2 (stereo not shown) [Example 4, 2-methyl-3-(4-((2,2,5-trimethyl-2,3-dihydrobenzofuran-7-yl)methoxy)phenyl)propanoic acid]
149.2	Cc1cc(COc2c(F)cc(CC(C)C(=O)O)cc2F)c2c(c1)CC(C)(C)O2 (stereo not shown) [Example 5, 3-(3,5-difluoro-4-((2,2,5-trimethyl-2,3-dihydrobenzofuran-7-yl)methoxy)phenyl)-2-methylpropanoic acid]
147.3	Cc1cc(CC(C)C(=O)O)ccc1OCc1cc(F)cc2c1OC(C)(C)C2 (stereo not shown) [Example 6, 3-(4-((5-fluoro-2,2-dimethyl-2,3-dihydrobenzofuran-7-yl)methoxy)-3-methylphenyl)-2-methylpropanoic acid]
168.2	COc1cc(CC(C)C(=O)O)ccc1OCc1cc(F)cc2c1OC(C)(C)C2 (stereo not shown) [Example 7, 3-(4-((5-fluoro-2,2-dimethyl-2,3-dihydrobenzofuran-7-yl)methoxy)-3-methoxyphenyl)-2-methylpropanoic acid]
135.3906	CC(Cc1ccc(OCc2cc(F)cc3c2OC(C)(C)C3)c(F)c1)C(=O)O (stereo not shown) [Example 8, 3-(3-fluoro-4-((5-fluoro-2,2-dimethyl-2,3-dihydrobenzofuran-7-yl)methoxy)phenyl)-2-methylpropanoic acid]
112.8	CC(Cc1ccc(OCc2cc(Cl)cc3c2OC(C)(C)C3)c(C(F)(F)F)c1)C(=O)O (stereo not shown) [Example 9, 3-(4-((5-chloro-2,2-dimethyl-2,3-dihydrobenzofuran-7-yl)methoxy)-3-(trifluoromethyl)phenyl)-2-methylpropanoic acid]
124.2119	Cc1cc(CC(C)C(=O)O)ccc1OCc1cc(Cl)cc2c1OC(C)(C)C2 (stereo not shown) [Example 11, 3-(4-((5-chloro-2,2-dimethyl-2,3-dihydrobenzofuran-7-yl)methoxy)-3-methylphenyl)-2-methylpropanoic acid]
116.1354	CC(Cc1ccc(OCc2cc(Cl)cc3c2OC(C)(C)C3)c(Cl)c1)C(=O)O (stereo not shown) [Example 12, 3-(3-chloro-4-((5-chloro-2,2-dimethyl-2,3-dihydrobenzofuran-7-yl)methoxy)phenyl)-2-methylpropanoic acid]
84.49	CC(Cc1cc(Cl)c(OCc2cc(Cl)cc3c2OC(C)(C)C3)c(Cl)c1)C(=O)O (stereo not shown) [Example 14, 3-(3,5-dichloro-4-((5-chloro-2,2-dimethyl-2,3-dihydrobenzofuran-7-yl)methoxy)phenyl)-2-methylpropanoic acid]
109.2	COc1cc(CC(C)C(=O)O)ccc1OCc1cc(Cl)cc2c1OC(C)(C)C2 (stereo not shown) [Example 15, 3-(4-((5-chloro-2,2-dimethyl-2,3-dihydrobenzofuran-7-yl)methoxy)-3-methoxyphenyl)-2-methylpropanoic acid]
110.8294	CC(Cc1ccc(OCc2cc(F)cc3c2OC(C)(C)C3)cc1)C(=O)O (stereo not shown) [Example 16, 3-(4-((5-fluoro-2,2-dimethyl-2,3-dihydrobenzofuran-7-yl)methoxy)phenyl)-2-methylpropanoic acid]
130.0714	CC(Cc1cc(F)c(OCc2cc(F)cc3c2OC(C)(C)C3)c(F)c1)C(=O)O (stereo not shown) [Example 18, 3-(3,5-difluoro-4-((5-fluoro-2,2-dimethyl-2,3-dihydrobenzofuran-7-yl)methoxy)phenyl)-2-methylpropanoic acid]
125.5	CC1(C)Cc2cc(F)cc(COc3c(F)cc(C4CC4C(=O)O)cc3F)c2O1 (stereo not shown) [Example 19, 2-(3,5-difluoro-4-((5-fluoro-2,2-dimethyl-2,3-dihydrobenzofuran-7-yl)methoxy)phenyl)cyclopropanecarboxylic acid]
112.6	CC(Cc1cc(F)c(OCc2cccc3c2CC(C)(C)O3)c(F)c1)C(=O)O (stereo not shown) [Example 21, 3-(4-((2,2-dimethyl-2,3-dihydrobenzofuran-4-yl)methoxy)-3,5-difluorophenyl)-2-methylpropanoic acid]
126	CC1(C)Cc2c(COc3c(F)cc(C4CC4C(=O)O)cc3F)cccc2O1 (stereo not shown) [Example 22, 2-(4-((2,2-dimethyl-2,3-dihydrobenzofuran-4-yl)methoxy)-3,5-difluorophenyl)cyclopropanecarboxylic acid]
112.7429	CC(Cc1cc(F)c(OCc2cccc3c2OC(C)(C)C3)c(F)c1)C(=O)O (stereo not shown) [Example 23, 3-(4-((2,2-dimethyl-2,3-dihydrobenzofuran-7-yl)methoxy)-3,5-difluorophenyl)-2-methylpropanoic acid]

same assay, conditions: human GPR120 cells, Ca2+ fluorescence; reference compounds, typical value

Molecule	concentration at which activity reached a maximum
4-[[(3-phenoxyphenyl)methyl]amino]benzene propanoic acid [GW9508, reference compound]	approximately 6.7 μM
